Experimental findings from patent US20050107386A1, “Methods of treating diseases and disorders by targeting multiple kinases” (priority 2003, published 2005) are described below.

The test system of test [1] is HCT-116 cells. Description: SCID mouse/HCT-116 xenograft model. Particulars: for % Tumor Growth Inhibition / T/C (ratio of mean tumor volume for treated vs. vehicle control) / Tumor Volume: day 28; for Tumor Volume: mean ± SEM.
Description: In one experiment, female CB.17 SCID mice were inoculated subcutaneously in the right hind limb with 2×10^6 HCT-116 cells. […] Treatment commenced on day 8 and proceeded for the duration of the study. All the compound treatments were given i.p. in a vehicle NPS in a volume of 5 ml/kg. […] The tumor volumes were measured twice a week using calipers. Values are mean±SEM. Statistical analysis was performed using ANOVA.
Female CB.17 SCID mice were inoculated subcutaneously in the right hind limb with 2×10^6 HCT-116 cells. […] Treatment commenced on day 8 and proceeded for the duration of the study. All the treatments were given i.p. in a vehicle NPS in a volume of 5 ml/kg.
Female CB.17 SCID mice were inoculated subcutaneously in the right hind limb with 2×10^6 HCT-116 cells. […] Treatment commenced on day 8 and proceeded for the duration of the study. All the compound treatments were given i.p. in a vehicle NPS in a volume of 5 ml/kg. […] The tumor volumes were measured twice a week using calipers.
The target of test [2] is T1, Bmx(h) (Homo sapiens, UniProt P51813).
T1 sequence (P51813 1-675): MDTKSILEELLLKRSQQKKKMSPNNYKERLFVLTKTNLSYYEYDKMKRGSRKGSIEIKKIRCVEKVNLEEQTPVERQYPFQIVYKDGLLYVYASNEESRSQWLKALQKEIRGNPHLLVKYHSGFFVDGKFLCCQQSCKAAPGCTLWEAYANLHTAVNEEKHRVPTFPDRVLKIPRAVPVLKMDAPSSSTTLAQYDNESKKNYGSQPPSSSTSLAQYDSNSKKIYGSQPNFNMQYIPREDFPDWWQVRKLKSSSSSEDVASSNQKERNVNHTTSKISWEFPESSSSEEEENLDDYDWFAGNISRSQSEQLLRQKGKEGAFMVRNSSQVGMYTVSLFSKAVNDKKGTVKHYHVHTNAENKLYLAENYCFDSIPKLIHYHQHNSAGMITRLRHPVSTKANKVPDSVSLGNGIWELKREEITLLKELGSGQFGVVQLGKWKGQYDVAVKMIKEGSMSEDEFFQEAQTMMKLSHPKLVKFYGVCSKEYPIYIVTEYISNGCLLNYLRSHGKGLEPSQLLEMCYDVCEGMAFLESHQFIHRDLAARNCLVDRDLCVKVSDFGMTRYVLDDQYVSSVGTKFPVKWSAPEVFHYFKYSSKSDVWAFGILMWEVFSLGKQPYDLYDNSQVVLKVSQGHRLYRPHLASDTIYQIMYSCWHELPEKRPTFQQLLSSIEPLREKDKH
Description: Bmx(h) kinase assay. It counts as biochemical. The conditions noted are these: 3 μM; percent of control kinase activity. The method, then: (§1) Six compounds (presumptive single agents) were tested against a panel of 50 kinases. The results are presented in Table 2; numbers for each kinase indicate the percent of control kinase activity in the presence of a 3μM concentration of the indicated agent.
(§2) Agents that target two or more different kinases are useful in the methods of the invention as described elsewhere herein. Such compounds may be identified, and their effect on certain kinases may be identified, using the assays briefly described below in Examples 4-83. Each of these assays was carried out as described in Davies et al., Biochem. J., 351:95-105 (2000). All assays were carried out at 10 μM ATP unless otherwise noted.

The target of test [3] is GSK3β(h) (Homo sapiens, UniProt P49841). Description: GSK3β(h) kinase assay. It is filed as biochemical. Particulars: 3 μM; percent of control kinase activity. On the procedure:
as §1, §2
In a final reaction volume of 25 μl, GSK3β (h) (5-10 mU) is incubated with 8 mM MOPS pH 7.0, 0.2 mM EDTA, 20 μM […](p)EDEEE (phospho GS2 peptide; SEQ ID NO:3), 10 mM MgAcetate and [γ-^33P-ATP] (Specific activity approx. 500 cpm/pmol, concentration as required). The reaction is initiated by the addition of Mg^2+ [γ-^33P-ATP]. After incubation for 40 minutes at room temperature, the reaction is stopped by the addition of 5 μl of a 3% phosphoric acid solution. 10 μl of the reaction is then spotted onto a P30 filtermat and washed three times for 5 minutes in 50 mM phosphoric acid and once in methanol prior to drying and scintillation counting.

In test [4] the target is IR(h) (Homo sapiens, UniProt P06213). Description: IR(h) kinase assay. Particulars: 3 μM; percent of control kinase activity. It is filed as biochemical. The method, then:
as §1, §2
In a final reaction volume of 25 μl, IR (h) (5-10 mU) is incubated with 50 mM Tris pH 7.5, 0.1 mM EGTA, 0.1 mM NaVanadate, 0.1% β-mercaptoethanol, 250 μM […] (SEQ ID NO: 15), 10 mM MnCl2, 10 mM MgAcetate and [γ-^33P-ATP] (Specific activity approx. 500 cpm/pmol, concentration as required). The reaction is initiated by the addition of Mg^2+ [γ-^33P-ATP]. After incubation for 40 minutes at room temperature, the reaction is stopped by the addition of 5 μl of a 3% phosphoric acid solution. 10 μl of the reaction is then spotted onto a P30 filtermat and washed three times for 5 minutes in 75 mM phosphoric acid and once in methanol prior to drying and scintillation counting.

For test [5], the target named is T2, PKD2(h) (Homo sapiens, UniProt Q9BZL6).
T2 sequence (Q9BZL6 1-878): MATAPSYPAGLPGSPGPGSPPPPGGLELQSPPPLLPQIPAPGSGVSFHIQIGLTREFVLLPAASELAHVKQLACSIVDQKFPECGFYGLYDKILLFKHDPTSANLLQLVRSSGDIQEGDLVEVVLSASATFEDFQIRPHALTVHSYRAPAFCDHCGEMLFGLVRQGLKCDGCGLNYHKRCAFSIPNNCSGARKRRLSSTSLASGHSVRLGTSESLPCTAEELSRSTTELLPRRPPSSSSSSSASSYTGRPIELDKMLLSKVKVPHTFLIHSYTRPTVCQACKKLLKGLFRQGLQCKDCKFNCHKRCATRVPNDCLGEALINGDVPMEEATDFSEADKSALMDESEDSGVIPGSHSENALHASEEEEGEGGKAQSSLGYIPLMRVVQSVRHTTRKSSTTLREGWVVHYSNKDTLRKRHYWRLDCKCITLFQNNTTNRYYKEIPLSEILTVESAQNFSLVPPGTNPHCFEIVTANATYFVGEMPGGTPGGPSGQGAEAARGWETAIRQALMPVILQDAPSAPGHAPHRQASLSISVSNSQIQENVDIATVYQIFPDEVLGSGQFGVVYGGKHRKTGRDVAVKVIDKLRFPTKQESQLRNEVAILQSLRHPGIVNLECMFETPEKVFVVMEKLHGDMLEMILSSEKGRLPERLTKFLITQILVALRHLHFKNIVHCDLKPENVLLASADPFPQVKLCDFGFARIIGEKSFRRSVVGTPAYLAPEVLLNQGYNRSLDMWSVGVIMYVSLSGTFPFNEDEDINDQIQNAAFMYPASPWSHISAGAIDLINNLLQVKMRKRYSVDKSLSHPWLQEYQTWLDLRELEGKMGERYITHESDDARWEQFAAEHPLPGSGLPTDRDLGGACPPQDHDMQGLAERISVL
Briefly: PKD2(h) kinase assay. It is filed as biochemical. Particulars: 3 μM; percent of control kinase activity. The method, then:
as §1, §2

The subject of test [6] is colon and lung tumors. Description: SCID mice bearing colon and lung tumors. It is filed as in vivo, mouse. Particulars: 10 mg/kg to 20mg/kg twice a day, single agent. The method, then: SCID mice bearing colon and lung tumors were treated with CC001 at a concentration of 10 mg/kg to 20mg/kg, administered twice a day.
Where [7] appears, read: Table 4, i.p. 20 mg/kg b.i.d. (b.i.d. day 8-11, then qd).
Where [8] appears, read: CC001 with Camptosar, model not named.

Chain of GSK3β(h) (P49841 whole entry): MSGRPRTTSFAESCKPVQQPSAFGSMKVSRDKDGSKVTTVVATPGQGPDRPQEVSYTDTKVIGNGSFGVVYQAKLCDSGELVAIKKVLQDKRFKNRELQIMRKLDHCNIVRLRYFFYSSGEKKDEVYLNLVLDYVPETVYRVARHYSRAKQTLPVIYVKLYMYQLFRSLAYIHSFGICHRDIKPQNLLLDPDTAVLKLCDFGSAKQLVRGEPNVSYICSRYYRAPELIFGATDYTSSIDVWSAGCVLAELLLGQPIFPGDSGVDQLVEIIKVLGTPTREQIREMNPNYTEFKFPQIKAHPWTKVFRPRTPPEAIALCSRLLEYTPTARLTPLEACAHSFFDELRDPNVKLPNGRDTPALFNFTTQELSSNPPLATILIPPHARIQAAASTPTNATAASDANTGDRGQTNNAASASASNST
Chain of IR(h) (P06213 28-1382): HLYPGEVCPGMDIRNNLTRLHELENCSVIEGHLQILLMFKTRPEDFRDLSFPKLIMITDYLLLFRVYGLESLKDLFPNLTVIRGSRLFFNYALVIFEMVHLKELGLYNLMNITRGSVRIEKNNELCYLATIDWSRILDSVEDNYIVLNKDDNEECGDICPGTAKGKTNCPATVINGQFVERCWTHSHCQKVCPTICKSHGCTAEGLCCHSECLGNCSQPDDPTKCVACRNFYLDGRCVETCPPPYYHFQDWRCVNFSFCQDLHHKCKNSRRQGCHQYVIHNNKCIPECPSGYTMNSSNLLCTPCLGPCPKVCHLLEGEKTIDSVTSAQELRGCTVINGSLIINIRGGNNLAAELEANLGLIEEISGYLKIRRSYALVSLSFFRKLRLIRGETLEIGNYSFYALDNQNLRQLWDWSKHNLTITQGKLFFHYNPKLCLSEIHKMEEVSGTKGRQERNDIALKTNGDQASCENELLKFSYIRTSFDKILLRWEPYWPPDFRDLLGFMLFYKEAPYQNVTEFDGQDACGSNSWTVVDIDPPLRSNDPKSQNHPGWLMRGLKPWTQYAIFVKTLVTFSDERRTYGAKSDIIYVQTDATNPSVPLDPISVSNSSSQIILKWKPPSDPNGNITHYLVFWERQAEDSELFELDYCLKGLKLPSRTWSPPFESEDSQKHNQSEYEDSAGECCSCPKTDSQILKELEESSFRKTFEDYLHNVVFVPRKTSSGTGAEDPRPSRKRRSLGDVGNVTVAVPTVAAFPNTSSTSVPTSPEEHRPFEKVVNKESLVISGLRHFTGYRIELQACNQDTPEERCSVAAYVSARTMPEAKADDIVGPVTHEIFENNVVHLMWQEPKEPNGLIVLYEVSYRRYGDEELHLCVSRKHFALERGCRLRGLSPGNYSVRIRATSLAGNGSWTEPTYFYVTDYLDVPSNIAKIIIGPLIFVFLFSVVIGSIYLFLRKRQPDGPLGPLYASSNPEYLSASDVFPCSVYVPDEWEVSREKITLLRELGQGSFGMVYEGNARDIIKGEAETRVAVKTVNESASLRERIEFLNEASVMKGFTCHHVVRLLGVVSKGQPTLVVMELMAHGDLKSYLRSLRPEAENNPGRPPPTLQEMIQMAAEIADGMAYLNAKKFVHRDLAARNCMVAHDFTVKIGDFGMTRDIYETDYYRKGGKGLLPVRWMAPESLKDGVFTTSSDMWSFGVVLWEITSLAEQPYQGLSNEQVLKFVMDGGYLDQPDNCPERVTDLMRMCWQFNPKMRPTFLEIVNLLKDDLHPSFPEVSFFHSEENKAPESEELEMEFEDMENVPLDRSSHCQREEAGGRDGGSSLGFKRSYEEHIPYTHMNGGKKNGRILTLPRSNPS

On to `CC(C)Cc1nc(-c2ccc3[nH]nc(-c4ccc5cc(OCCN6CCCC6)ccc5c4)c3c2)n[nH]1` [CC002, 5-(5-Isobutyl-1H-[1,2,4]Triazol-3-yl)-3-[6-(2-Pyrrolidin-1-yl-Ethoxy)-Naphthalen-2-yl]-1H-Indazole], for which, in test [1] (setting [7]), the “TGD (days to reach 1000 mm^3)” value was above 12 days, the “% Tumor Growth Inhibition” value is recorded as 68%, the “T/C (ratio of mean tumor volume for treated vs. vehicle control)” value came out at 35 and the “Tumor Volume” value is 792.8 ± 86.5^e mm^3. In addition, the “tumor volumes over the course of the experiment, in words” value in test [1] (i.p. 20 mg/kg b.i.d. day 8-11, then qd, P<0.001 vs vehicle control) is “reduced tumor volumes”.

Turning to `CCN1CCC[C@H]1COc1ccc2cc(-c3n[nH]c4ccc(-c5nc(CC(C)(C)C)n[nH]5)cc34)ccc2c1` [CC005, 2-[((2s)-1-ethylpyrrolidin-2-yl)methoxy]-6-{5-[3-(2,2-Dimethylpropyl)(1H-1,2,4,-triazol-5-yl)](1H-indazol-3-yl)}naphthalene], the “Inhibitory activity (% of control), Bmx(h)” value in test [2] is listed as 36 % of control. Moreover, in test [3], the “Inhibitory activity (% of control), GSK3β(h)” value is 34 % of control. In addition, the “Inhibitory activity (% of control), IR(h)” value in test [4] is reported as 31 % of control. Also, in test [5], the “Inhibitory activity (% of control), PKD2(h)” value was 0 % of control.

On to `COc1ccc2cc(-c3n[nH]c4ccc(-c5n[nH]c(CN6CCOCC6)n5)cc34)ccc2c1` [CC001, 3-(6-Methoxynaphthalen-2-yl)-5-(5-Morpholin-4-Ylmethyl-1H-[1,2,4]Triazol-3-yl)-1H-Indazole], for which the “Inhibitory activity (% of control), Bmx(h)” value in test [2] was 74 % of control. For the same compound, in test [3], the “Inhibitory activity (% of control), GSK3β(h)” value is reported as 12 % of control. The “Inhibitory activity (% of control), IR(h)” value in test [4] is on record as 74 % of control. In addition, the “Inhibitory activity (% of control), PKD2(h)” value in test [5] is 14 % of control. In test [6], the T/C ratio is on record as 40-60% and the “tumor growth, in words” value is “inhibited tumor growth in a dose-dependent manner”. Moreover, the “effect on tumor development, in words” value in test [1] (CC001 at 20 mg/kg administered with 2.5 mg/kg Camptosar) is “equivalent to an administration of Camptosar alone at 10 mg/kg”. Moreover, in test [1] (setting [8]), the T/C ratio was around 15% and the “in vivo effects in combination, in words” value is “Additive in vivo effects”. Further, in test [1] (Table 3, i.p. 20 mg/kg b.i.d.), the “TGD (days to reach 1000 mm^3)” value was above 12 days, the “% Tumor Growth Inhibition” value is listed as 69.6%, the “T/C (ratio of mean tumor volume for treated vs. vehicle control)” value came out at 32 and the “Tumor Volume” value is listed as 798.3 ± 71.1^e mm^3. Further, in test [1] (Table 5, i.p. 20 mg/kg b.i.d.), the “% Tumor Growth Inhibition” value came out at 69%, the “T/C (ratio of mean tumor volume for treated vs. vehicle control)” value is reported as 34 and the “Tumor Volume” value is on record as 752.5 ± 66.6^e mm^3. Moreover, the “TGD (500 mm^3)” value in test [1] (Table 5, i.p. 20 mg/kg b.i.d., days to reach 500 mm^3) is above 7 days. Also, the “TGD (1000 mm^3)” value in test [1] (Table 5, i.p. 20 mg/kg b.i.d., days to reach 1000 mm^3) was above 10 days. Moreover, in test [1] (i.p. 20 mg/kg b.i.d., P<0.001 compared to vehicle control), the “tumor mass over the course of the experiment, in words” value is “significantly smaller tumor mass”.

On to `CC(C)(C)Cc1nc(-c2ccc3[nH]nc(-c4ccc5cc(OCc6ccccn6)ccc5c4)c3c2)n[nH]1` [CC004, 5-[5-(2,2-Dimethyl-propyl)-1H-[1,2,4]triazol-3-yl]-3-[6-(pyridine-2-ylmethoxy)-naphthalen-2-yl]-1H-indazole], for which, in test [2], the “Inhibitory activity (% of control), Bmx(h)” value is on record as 98 % of control. Besides, the “Inhibitory activity (% of control), GSK3β(h)” value in test [3] is reported as 63 % of control. Also, the “Inhibitory activity (% of control), IR(h)” value in test [4] was 89 % of control. The “Inhibitory activity (% of control), PKD2(h)” value in test [5] is recorded as 26 % of control.
